In EPA's ToxValDB 9.5 (doi:10.2903/j.efsa.2009.298r):
Values after ≈ are worked out from the molar mass of the structure shown.

Experiments:
Allium cepa = conditions: not reported; seedling emergence
Daphnia magna = conditions: chronic/long-term; duration: 21 days; reproduction
Folsomia candida = conditions: chronic/long-term
Apis mellifera = conditions: acute, mortality
Tagia sp. = conditions: mortality
Canidae = conditions: oral, Dog Other, organ weight

## CCCCC(C#N)(Cn1cncn1)c1ccc(Cl)cc1 (configuration not stated) [Myclobutanil]
Allium cepa
  LEL: > 300 g/ha
Typhlodromus pyri; acute, duration: 14 days, mortality
  LEL: 36 g/ha
Typhlodromus pyri; not reported, reproduction
  LEL: 36 g/ha
Daphnia magna
  NOEC: 1 mg/L
Folsomia candida
  NOEC: 20.5 mg/kg
Colinus virginianus; acute, oral, diet, mortality
  LC50: > 567 mg/kg-day
Colinus virginianus; acute, oral, mortality
  LD50: 510 mg/kg-day
Colinus virginianus; reproduction developmental
  NOEC: 24.2 mg/kg-day
Oncorhynchus mykiss; acute, duration: 96 hours, mortality
  LC50: 2 µg/mL (≈ 6.93 µM)
Oncorhynchus mykiss; chronic/long-term, duration: 21 days, growth
  NOEC: 0.2 mg/L
Apis mellifera; duration: 72 hours, dermal
  LD50: > 39.6 µg/piece
Apis mellifera; oral, unspecified
  LD50: > 33.9 µg/piece
Anas platyrhynchos; reproductive
  NOEC: 31.6 mg/kg-day
Anas platyrhynchos; short-term, oral, feed, mortality
  LC50: > 1540 mg/kg-day
Tagia sp.; acute
  LC50: 250 mg/kg
Tagia sp.; chronic/long-term, duration: 28 days
  NOEC: 10.3 mg/kg
Canidae; chronic, duration: 1 years
  NOAEL: 3.09 mg/kg-day
Canidae; subchronic, duration: 90 days
  NOAEL: 3.09 mg/kg-day
Rattus norvegicus; acute, oral, M, mortality
  LD50: 1600 mg/kg-day
Rattus norvegicus; chronic, duration: 2 years, histopathology: nonneoplastic
  NOAEL: 2.5 mg/kg-day
Rattus norvegicus; developmental, development
  NOAEL: 31 mg/kg-day
Rattus norvegicus; reproduction developmental, reproduction
  NOEL: 16 mg/kg-day
